What was measured:
[1] = tested on: SARS-CoV-2 (hCoV-19/Egypt/NRC-03/2020); assay type: cell-based; details: for Selectivity index (SI): SI=CC50/IC50
VERO-E6 cells = test: MTT cytotoxicity assay; assay type: cell-based; details: MTT, 24 h
MTT cytotoxicity assay = assay type: cell-based; details: African green monkey, VERO-E6 cells
[2] = molecular target: M^pro-SARS-CoV-2 (3CL Protease) (Severe acute respiratory syndrome coronavirus 2, UniProt P0DTD1); test: M^pro-SARS-CoV-2 inhibition, 3CL Protease; assay type: biochemical
SARS-CoV-2 = details: read-out: EC50 (Vero-E6 cell); against SARS-CoV-2, Vero-E6 cell; cited from earlier work

Row | Molecule | IC50 [1] [µM] | CC50 (VERO-E6 cells) [µM] | Selectivity index (SI) [1] | CC50 at 24 h (MTT cytotoxicity assay) [µM] | IC50 [2] [µM] | EC50 (SARS-CoV-2) [µM]
1 | Diethyl (E)-[5''-(4-fluorobenzylidene)-4'-(4-fluorophenyl)-1′-methyl-2,4″-dioxodispiro[indoline-3,2′-pyrrolidine-3′,3″-piperidin]-1″-yl]phosphonate [Compound 6c] | 85.8 | 126 |  |  |  | 
2 | Diethyl (E)-[5''-(4-chlorobenzylidene)-4'-(4-chlorophenyl)-1′-methyl-2,4″-dioxodispiro[indoline-3,2′-pyrrolidine-3′,3″-piperidin]-1″-yl]phosphonate [Compound 6e] | 340 | 9.83 |  |  |  | 
3 | Diethyl (E)-[5-chloro-1′-methyl-5''-(4-methylbenzylidene)-2,4″-dioxo-4'-(p-tolyl)dispiro[indoline-3,2′-pyrrolidine-3′,3″-piperidin]-1″-yl]phosphonate [Compound 6j] | 21.7 | 40.1 |  |  |  | 
4 | CCOP(=O)(OCC)N1C/C(=C\c2ccc(F)cc2)C(=O)C2(C1)C(c1ccc(F)cc1)CN(C)C21C(=O)Nc2ccc(Cl)cc21 (stereo not shown) [Compound 6d, Diethyl (E)-[5-chloro-5''-(4-fluorobenzylidene)-4'-(4-fluorophenyl)-1′-methyl-2,4″-dioxodispiro[indoline-3,2′-pyrrolidine-3′,3″-piperidin]-1″-yl]phosphonate] |  |  | 1.39 | 18.8 | 42.8 ± 2.53 | 
5 | Diethyl (E)-[5-chloro-1′-methyl-2,4″-dioxo-4'-(thiophen-2-yl)-5''-(thiophen-2-ylmethylene)dispiro[indoline-3,2′-pyrrolidine-3′,3″-piperidin]-1″-yl]phosphonate [Compound 6l] | 578 | 23.7 |  |  |  | 
6 | CCOP(=O)(OCC)N1C/C(=C\c2ccccc2)C(=O)C2(C1)C(c1ccccc1)CN(C)C21C(=O)Nc2ccc(Cl)cc21 (stereo not shown) [Compound 6b, Diethyl (E)-(5″-benzylidene-5-chloro-1′-methyl-2,4″-dioxo-4′-phenyldispiro[indoline-3,2′-pyrrolidine-3′,3″-piperidin]-1″-yl)phosphonate] |  |  | 2.12 | 22 | 9.6 ± 0.66 | 
7 | COc1cccc2[nH]c(C(=O)N[C@@H](CC(C)C)C(=O)N[C@@H](C[C@@H]3CCNC3=O)C(=O)CO)cc12 [PF-00835231] |  |  |  |  |  | ≤ 0.23
8 | Diethyl (E)-[1′-methyl-5''-(4-methylbenzylidene)-2,4″-dioxo-4'-(p-tolyl)dispiro[indoline-3,2′-pyrrolidine-3′,3″-piperidin]-1″-yl]phosphonate [Compound 6i] | 35.2 | 87 |  |  |  | 
9 | CCOP(=O)(OCC)N1C/C(=C\c2ccc(Br)cc2)C(=O)C2(C1)C(c1ccc(Br)cc1)CN(C)C21C(=O)Nc2ccccc21 (stereo not shown) [Compound 6g, Diethyl (E)-[5''-(4-bromobenzylidene)-4'-(4-bromophenyl)-1′-methyl-2,4″-dioxodispiro[indoline-3,2′-pyrrolidine-3′,3″-piperidin]-1″-yl]phosphonate] |  |  | 2.29 | 20.3 | 15.6 ± 1.02 | 
10 | Diethyl (E)-(5″-benzylidene-1′-methyl-2,4″-dioxo-4′-phenyldispiro[indoline-3,2′-pyrrolidine-3′,3″-piperidin]-1″-yl)phosphonate [Compound 6a] | 88.6 | 73.1 |  |  |  | 
11 | Diethyl (E)-[5-chloro-5''-(4-chlorobenzylidene)-4'-(4-chlorophenyl)-1′-methyl-2,4″-dioxodispiro[indoline-3,2′-pyrrolidine-3′,3″-piperidin]-1″-yl]phosphonate [Compound 6f] | 7.26 | 10 |  |  |  | 
12 | Diethyl (E)-[1′-methyl-2,4″-dioxo-4'-(thiophen-2-yl)-5''-(thiophen-2-ylmethylene)dispiro[indoline-3,2′-pyrrolidine-3′,3″-piperidin]-1″-yl]phosphonate [Compound 6k] | 106 | 49.9 |  |  |  | 
13 | Diethyl (E)-[5''-(4-methoxybenzylidene)-4'-(4-methoxyphenyl)-1′-methyl-2,4″-dioxodispiro[indoline-3,2′-pyrrolidine-3′,3″-piperidin]-1″-yl]phosphonate [Compound 6h] | 46.7 | 38.3 |  |  |  | 

— PMC10257517 (European Journal of Medicinal Chemistry, 2023)
